Source: PMC11801715, “Activating PKC-ε induces HIV expression with improved tolerability” (PLOS Pathogens, 2025)

Tests used:
Test in all cases: PKC isoform translocation in A549-tGFP cells
Type in all cases: cell-based
Design in all cases: host or cells: A549
Conditions in all cases: 60 minutes
PKC-β1 = PKC-β1 (Homo sapiens, UniProt P05771)
Procedure: (§1) Using these findings we embarked on new designs for DAG-lactones with additional substituents from the ester moiety in combination with a few olefin substituents. A description of this effort is reported elsewhere.
(§2) Cellular translocation of PKC isoforms upon activation was determined in 8 A549 cell lines, each expressing a single PKC isoform fused to tGFP (PhenoVista Biosciences). Cells were plated in 384-well plates (80 μL/well) at 10^5 cells/mL in RPMI with 10% FBS and rested overnight. PKC agonist(s) were serially diluted at 1:3 steps in DMSO and added to the cells. After 60 minutes in an incubator at 37 °C, 5% CO2, cells were stained with Hoechst-33342 and fixed with 2% paraformaldehyde for 30 minutes at 4 °C. Cells were then stained with wheat germ agglutinin conjugated to AlexaFluor647 (WGA-647) for 10 minutes at 4 °C, washed to remove excess dye and imaged with Cellomics Array Scan (Thermo Fisher) at room temperature (RT). Images were analyzed using Cellomics automated image analysis algorithm. Plasma membrane translocation was quantified using the ratio between the average fluorescence in the areas at the cell edge defined by WGA-647 and the cytoplasm region.

PKC-β2 = PKC-β2 (Homo sapiens, UniProt P05771)
Procedure: as §1, §2

PKC-γ = PKC-γ (Homo sapiens, UniProt P05129)
Procedure: as §1, §2

Chain of PKC-β2 (P05771 1-673 isoform P05771-2): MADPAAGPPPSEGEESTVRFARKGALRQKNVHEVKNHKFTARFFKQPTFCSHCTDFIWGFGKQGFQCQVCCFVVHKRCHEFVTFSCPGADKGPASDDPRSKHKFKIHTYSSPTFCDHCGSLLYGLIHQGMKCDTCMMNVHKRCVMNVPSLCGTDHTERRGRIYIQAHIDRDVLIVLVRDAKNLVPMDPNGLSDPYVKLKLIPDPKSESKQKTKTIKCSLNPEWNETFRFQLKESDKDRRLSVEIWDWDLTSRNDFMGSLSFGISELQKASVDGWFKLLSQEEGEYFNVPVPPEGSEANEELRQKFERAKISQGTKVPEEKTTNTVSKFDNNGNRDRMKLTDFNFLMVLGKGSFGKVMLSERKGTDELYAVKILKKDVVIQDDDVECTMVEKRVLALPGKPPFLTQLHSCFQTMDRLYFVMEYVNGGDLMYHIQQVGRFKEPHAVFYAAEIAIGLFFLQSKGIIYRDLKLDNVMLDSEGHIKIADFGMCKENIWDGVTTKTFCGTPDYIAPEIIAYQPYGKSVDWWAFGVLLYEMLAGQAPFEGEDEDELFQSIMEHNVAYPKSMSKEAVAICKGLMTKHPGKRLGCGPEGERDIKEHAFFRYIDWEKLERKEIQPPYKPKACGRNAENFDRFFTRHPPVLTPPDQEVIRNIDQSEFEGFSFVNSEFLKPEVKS
Chain of PKC-β1 (P05771 whole entry): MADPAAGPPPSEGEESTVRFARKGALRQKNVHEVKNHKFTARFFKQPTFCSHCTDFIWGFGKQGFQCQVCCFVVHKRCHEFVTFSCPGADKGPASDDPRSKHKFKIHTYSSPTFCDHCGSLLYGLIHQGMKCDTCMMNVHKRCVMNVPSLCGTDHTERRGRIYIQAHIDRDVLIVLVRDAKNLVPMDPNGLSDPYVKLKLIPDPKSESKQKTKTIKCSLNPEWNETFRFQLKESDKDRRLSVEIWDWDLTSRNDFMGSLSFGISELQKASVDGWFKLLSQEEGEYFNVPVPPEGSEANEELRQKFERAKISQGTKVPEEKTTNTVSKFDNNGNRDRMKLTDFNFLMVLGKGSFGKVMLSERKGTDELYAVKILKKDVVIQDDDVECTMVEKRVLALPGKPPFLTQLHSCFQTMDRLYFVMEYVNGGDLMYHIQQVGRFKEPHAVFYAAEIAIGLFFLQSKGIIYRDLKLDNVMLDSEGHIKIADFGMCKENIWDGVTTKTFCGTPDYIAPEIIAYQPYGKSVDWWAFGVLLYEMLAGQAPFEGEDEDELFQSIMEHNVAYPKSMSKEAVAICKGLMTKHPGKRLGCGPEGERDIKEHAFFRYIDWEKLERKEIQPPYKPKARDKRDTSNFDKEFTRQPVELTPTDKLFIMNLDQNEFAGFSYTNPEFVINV

Cc1ccc(C#Cc2ccc3oc(CC(C)(C)C(=O)OCC4(CO)CC(=CCC(CC(C)C)CC(C)C)C(=O)O4)cc3c2)cc1 (stereo not drawn) [C-232A]
EC50 (PKC-β1): 3.28 µM | EC50 (PKC-β2): 2.26 µM | EC50 (PKC-γ): 11.5 µM
